How the values were obtained:
[1] = singlet oxygen efficiency test, reference rose bengal; type: physicochemical
[2] = absorption spectrum (maximum absorption wavelength, molar extinction coefficient); type: physicochemical

Row | SMILES | singlet oxygen yield [1] [%] | maximum absorption wavelength [2] [nm] | molar extinction coefficient [2]
1 | COc1c(NCC(=O)O)c2c(=O)cc(OC)c3c4c(OC)cc(=O)c5c(O)c(NCC(=O)O)c6c(c(c1C(C(C)=O)C(C)=C6)c23)c54 (stereo not drawn) [HB-7b] | 25 | 622 | 28,000 M^−1cm^−1
2 | COc1c(O)c2c(=O)cc(OC)c3c4c(OC)cc(=O)c5c(NCCCC(=O)NCCS(=O)(=O)O)c(NCCCC(=O)NCCS(=O)(=O)O)c6c(c(c1CC(C)=C6)c23)c54 [HC-8a-NH—C2-SO3H] | 32 | 620 | 31,000 M^−1cm^−1
3 | COc1c2c3c4c(c(NCCNCCOCCOCCOCCOCCO)c(=O)c5c(NCCNCCOCCOCCOCCOCCO)c(Br)c(OC)c(c6c(OC)cc(O)c(c1=O)c63)c54)C=C(C)C2C(C)=O (stereo not drawn) [HB-5c-Br-PEG4] | 36 | 630 | 31,500 M^−1cm^−1
4 | COc1c2c3c4c(c(NO)c(=O)c5c(O)cc(OC)c(c6c(OC)cc(NO)c(c1=O)c63)c54)C=C(C)C2 [HC-37d] | 33 | 620 | 32,000 M^−1cm^−1
5 | COc1c(O)c2c(=O)cc(OC)c3c4c(OC)cc(=O)c5c(NCc6ccccn6)c(NCc6ccccn6)c6c(c(c1C(C(C)=O)C(C)=C6)c23)c54 (stereo not drawn) [HB-38a] | 16 | 624 | 19,000 M^−1cm^−1
6 | COc1c2c3c4c(c(NCC[N+]56CC[N+](C)(CC5)CC6)c(=O)c5c(O)cc(OC)c(c6c(OC)cc(NCC[N+]78CC[N+](C)(CC7)CC8)c(c1=O)c63)c54)C=C(C)C2C(C)=O (stereo not drawn) [HB-41d] | 28 | 625 | 30,500 M^−1cm^−1
7 | COCCOCCOCCOCCOCCOCCOCCC(=O)N1CCC(CNc2c3c4c5c(c(OC)c(=O)c6c(O)cc(OC)c(c7c(OC)c(Br)c(NCC8CCN(C(=O)CCOCCOCCOCCOCCOCCOCCOC)CC8)c(c2=O)c47)c65)C(C(C)=O)C(C)=C3)CC1 (stereo not drawn) [HB-31c-Br-PEG6] | 38 | 631 | 33,000 M^−1cm^−1
8 | COc1c(NCCCCCC(=O)O)c2c(=O)cc(OC)c3c4c(OC)cc(=O)c5c(O)c(NCCCCCC(=O)O)c6c(c(c1CC(C)=C6)c23)c54 [HC-9b] | 24 | 622 | 27,500 M^−1cm^−1
9 | COC(=O)C(CO)Nc1c(O)c2c(=O)cc(OC)c3c4c(OC)cc(=O)c5c(NC(CO)C(=O)OC)c(OC)c6c(c(c1C=C(C)C6C(C)=O)c23)c54 (stereo not drawn) [HB-24b] | 20 | 621 | 21,500 M^−1cm^−1
10 | COc1c(NCCCCS(=O)(=O)O)c2c(=O)cc(OC)c3c4c(OC)cc(=O)c5c(O)c(NCCCCS(=O)(=O)O)c6c(c(c1C(C(C)=O)C(C)=C6)c23)c54 (stereo not drawn) [HB-11b-C4-SO3H] | 34 | 620 | 30,500 M^−1cm^−1
11 | COc1c(O)c2c(=O)cc(OC)c3c4c(OC)cc(=O)c5c(NCCCC(=O)NCC[N+](C)(C)C)c(NCCCC(=O)NCC[N+](C)(C)C)c6c(c(c1CC(C)=C6)c23)c54 [HC-8a-NH—C2-N^+] | 29 | 622 | 30,000 M^−1cm^−1
12 | COc1c2c3c4c(c(NCCCC(=O)NCCCC[N+](C)(C)C)c(=O)c5c(O)cc(OC)c(c6c(OC)cc(NCCCC(=O)NCCCC[N+](C)(C)C)c(c1=O)c63)c54)C=C(C)C2 [HC-8d-NH—C4-N^+] | 33 | 624 | 30,500 M^−1cm^−1
13 | CCNc1c2c3c4c(c(OC)c(=O)c5c(NC6CCCC6)cc(OC)c(c6c(OC)c(SCCO)c(O)c(c1=O)c36)c54)C(C(C)=O)C(C)=C2 (stereo not drawn) [HB-S-44d] | 21 | 622 | 21,500 M^−1cm^−1
14 | COc1c(NCCOC(=O)N2CC(=O)NC(=O)C2)c2c(=O)cc(OC)c3c4c(OC)cc(=O)c5c(O)c(NCCOC(=O)N6CC(=O)NC(=O)C6)c6c(c(c1C(C(C)=O)C(C)=C6)c23)c54 (stereo not drawn) [HB-40b] | 34 | 624 | 31,500 M^−1cm^−1
15 | COCCOC(=O)C1CCC(Nc2c(NC3CCC(C(=O)OCCOC)C3)c3c(=O)cc(OC)c4c5c(OC)cc(=O)c6c(O)c(OC)c7c(c(c2C=C(C)C7C(C)=O)c34)c65)C1 (stereo not drawn) [HB-19a-PEG1] | 32 | 624 | 30,500 M^−1cm^−1
16 | COc1c2c3c4c(c(NCC(=O)O)c(=O)c5c(NCC(=O)O)cc(OC)c(c6c(OC)cc(O)c(c1=O)c63)c54)C=C(C)C2 [HC-7c] | 27 | 630 | 29,500 M^−1cm^−1
17 | COCCOCCC(=O)OC1CCC(Nc2c(NC3CCC(OC(=O)CCOCCOC)C3)c3c(=O)cc(OC)c4c5c(OC)cc(=O)c6c(O)c(OC)c7c(c(c2C=C(C)C7C(C)=O)c34)c65)C1 (stereo not drawn) [HB-20a-PEG1] | 30 | 624 | 31,000 M^−1cm^−1
18 | COCCOCCNc1c(NCCCC(=O)O)c2c3c4c(c(OC)c(O)c5c(=O)cc(OC)c(c6c(OC)cc(=O)c1c63)c54)C(C(C)=O)C(C)=C2 (stereo not drawn) [HB-47a-PEG1] | 30 | 622 | 30,500 M^−1cm^−1
19 | COc1c2c3c4c(c(NCCOC(=O)N5CC(=O)NC(=O)C5)c(=O)c5c(NCCOC(=O)N6CC(=O)NC(=O)C6)cc(OC)c(c6c(OC)cc(O)c(c1=O)c63)c54)C=C(C)C2C(C)=O (stereo not drawn) [HB-40c] | 40 | 632 | 34,000 M^−1cm^−1
20 | COCCOCCOCCOCCOCCOCCOCCC(=O)OCCOCCNc1c2c3c4c(c(OC)c(=O)c5c(NCCOCCOC(=O)CCOCCOCCOCCOCCOCCOCCOC)cc(OC)c(c6c(OC)cc(O)c(c1=O)c63)c54)CC(C)=C2 [HC-1d-PEG6] | 34 | 622 | 34,500 M^−1cm^−1
21 | COc1c(O)c2c(=O)cc(OC)c3c4c(OC)cc(=O)c5c(NCCCC(=O)O)c(NCC(=O)O)c6c(c(c1C(C(C)=O)C(C)=C6)c23)c54 (stereo not drawn) [HB-43a] | 28 | 613 | 26,500 M^−1cm^−1
22 | COc1c2c3c4c(c(NCC5CCC(C(=O)O)CC5)c(=O)c5c(O)cc(OC)c(c6c(OC)cc(NCC7CCC(C(=O)O)CC7)c(c1=O)c63)c54)C=C(C)C2C(C)=O (stereo not drawn) [HB-13d] | 28 | 621 | 28,000 M^−1cm^−1
23 | COCCOCCOCCOCCOCCOCCOCCOCCOCCOCCOCCOCCOCCOCCOCCOCCOC(=O)C1CCC(CNc2c3c4c5c(c(OC)c(=O)c6c(NCC7CCC(C(=O)OCCOCCOCCOCCOCCOCCOCCOCCOCCOCCOCCOCCOCCOCCOCCOCCOC)CC7)cc(OC)c(c7c(OC)cc(O)c(c2=O)c74)c65)C(C(C)=O)C(C)=C3)CC1 (stereo not drawn) [HB-13d-PEG16] | 33 | 624 | 30,500 M^−1cm^−1

From patent US11439707B2, “Hypocrellin derivative substituted both in a peri-position and in 2-position by amino, preparation method, and application thereof” (priority 2017, dated 2022)
